Measurements published in patent publication US20250136581A1, “SUBSTITUTED TRIAZOLE DERIVATIVE, PREPARATION METHOD THEREFOR, PHARMACEUTICAL COMPOSITION THEREOF, AND USE THEREOF” (SHANGHAI SIMR BIOTECHNOLOGY CO., LTD., priority 2021, published 2025).

Biological target: human α1β3γ2 receptors (Homo sapiens (Human), UniProt P14867+P18507)
Assay: 3H-flunitrazepam competition binding, human α1β3γ2 GABAA receptor
Conditions: HEK293 cell membranes, 1 nM 3H-flunitrazepam; read-out: Ki α1
Procedure, shortened: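 HEK293 membranes stably expressing each human receptor subtype ([…]) competed against 1 nM 3H-flunitrazepam in Tris buffer, 1 h at room temperature; flumazenil defined the low-signal control. Eight-point 4-fold test-compound dilutions; GF/C filtration and scintillation counting gave IC50 by curve fitting, converted to Ki.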

Ki: 0.0598 µM
Compound: Cc1nnn(-c2ccc(C(F)F)cc2)c1COc1ccc(N2CC(=O)NC(C)C2)nn1 (stereo not shown) [Example 6, 4-(6-((1-(4-(Difluoromethyl)phenyl)-4-methyl-1H-1,2,3-triazol-5-yl)methoxy)pyridazin-3-yl)-6-methylpiperazin-2-one]
